This passage reports GI50 results from article PMC6442119, “The antitumor activity of CYB-L10, a human topoisomerase IB catalytic inhibitor” (Journal of Enzyme Inhibition and Medicinal Chemistry, 2019).

The GI50 is the concentration giving 50% growth inhibition.

What all share (assay): MTT assay
On the technique in general: Tetrazolium assays rely on reduction of a dye to a coloured formazan, in cell work by metabolically active cells.

One test deals with MCF-7. Type of test: cell-based. The note with it: Homo sapiens, MCF7; Parental cell line MCF-7, MTT, 72 h.
The subject of a further test is RC0.1. To be noted: Homo sapiens, 72 h, read-out: GI50 ± SD.
For another test, the system named is DU-145. Type of test: cell-based. The note with it: Homo sapiens; Parental cell line DU-145, MTT, 72 h.

Take `COc1cccc2c1C(=O)c1c(O)c3c(c(O)c1C2=O)C[C@@](O)(C(=O)CO)C[C@@H]3O[C@H]1C[C@H](N)[C@H](O)[C@H](C)O1` [DOX, doxorubicin, reference compound]: the GI50 in the test on MCF-7 turned out to be 0.15 ± 0.003 µM.
Consider `CC[C@@]1(O)C(=O)OCc2c1cc1n(c2=O)Cc2cc3ccccc3nc2-1` [CPT, Camptothecin, reference compound], for which the GI50 was 7.53 ± 1.88 µM in the test on RC0.1 and 0.019 ± 0.009 µM in the test with DU-145.
